Converted amounts (≈) assume the structure as drawn.
Test system: P388
Assay: In vitro evaluation for cytotoxicity against P388 murine leukemia.
Type: functional, cell-based, Mus musculus

Compound	IC50 (Mus musculus, P388, read-out: IC50) [ng/mL]	IC50 (p388) [ng/mL]
COC(=O)[C@@]1(C)N=C2C(=O)C=C3N(C(=O)c4cc5cc(OC)c(OC)c(OC)c5[nH]4)C[C@@H]4C[C@]34C2=C1O	0.3 (≈ 0.591 nM)	–
COC(=O)[C@]1(C)N=C2C(=O)C=C3N(C(=O)c4cc5cc(OC)c(OC)c(OC)c5[nH]4)C[C@H]4C[C@@]34C2=C1O	–	0.002 (≈ 0.00394 nM)

— ChEMBL document CHEMBL1126437, “Synthesis and cytotoxicity of enantiomeric pairs of duocarmycin a and its 2-epimer” (Bioorg Med Chem Lett, 1992)
